Results reported in PMC9953885 (Biosensors, 2023).
Structures can show the parent of a compound that is named as a salt.

Target: T1, human pancreatic lipase (hPL) (Homo sapiens, UniProt P16233)
T1 construct: gene PNLIP
T1 sequence (P16233 17-465): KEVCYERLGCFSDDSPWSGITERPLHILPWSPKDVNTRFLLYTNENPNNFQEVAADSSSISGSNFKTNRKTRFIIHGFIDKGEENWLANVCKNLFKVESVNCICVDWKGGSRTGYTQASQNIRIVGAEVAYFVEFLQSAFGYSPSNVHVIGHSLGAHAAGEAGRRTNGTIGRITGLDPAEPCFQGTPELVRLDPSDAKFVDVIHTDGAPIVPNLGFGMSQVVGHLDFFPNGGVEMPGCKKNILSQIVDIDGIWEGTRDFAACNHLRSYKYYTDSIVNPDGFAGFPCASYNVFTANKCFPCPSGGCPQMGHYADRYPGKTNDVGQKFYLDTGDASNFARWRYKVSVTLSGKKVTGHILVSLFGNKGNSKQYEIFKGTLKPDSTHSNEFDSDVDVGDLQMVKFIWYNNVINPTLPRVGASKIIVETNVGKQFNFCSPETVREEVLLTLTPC
Conditions: 10 µM; inhibitor
Protocol: First, we evaluated the inhibitory effect of 94 natural products derived from herbs and 94 drugs on hPL. In our high-throughput screening system, 1 ug/mL hPL was used, and the final concentration of the 94 natural products derived from herbs and 94 drugs used was 10 μM. Other conditions were the same as in the selectivity experiments. […] RLE was incubated with hPL and various enzymes, such as hCES1A, hCES2A, CA, AchE, BchE, 5-HKE, lysozyme, trypsin, thrombin, α-CT, FAP, PREP, pepsin, α-amylase, plasmin, notum and hSA, in a 100 µL incubation mixture consisting of Tris-HCl (pH = 7.4, 25 mM), NaCl (150 mM), CaCl2 (1 mM) and porcine bile salt (0.1 mg/mL) at a concentration of 1.5 µg/mL. The reaction was initiated by adding RLE to the preincubated enzyme mixture at 37 °C, and metabolite formation was determined by measuring the fluorescence intensity of resorufin at 590 nm. In addition, several amino acids (IIe, His, Trp, Val, Leu, Tyr, Ala, Thr, Pro, Asp, Lys, Met, Cys, Ser, Phe, Gly, Glu and Gln), ions (Ni^2+, Ca^2+, Na^+, K^+, Cu^2+, Zn^2+, Mg^2+, NH4^+, Cu^+, Fe^2+ and CN^-) and GSH were measured. The concentration of these interfering factors was 5 μM. […] In this case, a visual high-throughput assay was established to screen hPL inhibitors, using RLE as a fluorogenic substrate in a 96-well microplate.

| Structure (SMILES) | % of control remaining [%] |
| --- | --- |
| O=C(Cc1ccccc1F)C1CC1 [Cyclopropyl 2-fluorobenzyl ketone] | 117.10 |
| C=C1C(=O)[C@]23[C@H](O)[C@H]1CC[C@H]2[C@@]12CO[C@]3(O)[C@@H](O)[C@@H]1C(C)(C)CC[C@@H]2O [Oridonin] | 66.82 |
| COc1ccc(-c2cc(=O)c3c(OC)c(OC)c(OC)c(OC)c3o2)cc1OC [Nobiletin] | 80.44 |
| O=C(/C=C/c1ccccc1)OCc1ccccc1 [Benzyl cinnamate] | 74.62 |
| COc1c2ccoc2cc2oc(=O)ccc12 [Bergapten] | 54.11 |
| COc1ccc2[nH]c([S+]([O-])Cc3ncc(C)c(OC)c3C)nc2c1 (centres unmarked) [Omeprazole] | 94.84 |
| CC(C(=O)O)c1cccc(Oc2ccccc2)c1 (centres unmarked) [Fenoprofen] | 91.13 |
| O=C1C[C@@H](c2ccccc2)Oc2cc(O)cc(O)c21 [Pinocembrin] | 91.25 |
| COc1ccc(-c2cc(=O)c3c(O)c(OC)c(OC)cc3o2)cc1 [Salvigenin] | 75.70 |
| C=C1CC[C@@H]2[C@](C)(CO)[C@H](O)CC[C@@]2(C)[C@@H]1C/C=C1/C(=O)OC[C@H]1O [Andrographolide] | 70.38 |
| CC(=O)O[C@]1(C(C)=O)CC[C@H]2[C@@H]3C[C@H](C)C4=CC(=O)CC[C@]4(C)[C@H]3CC[C@@]21C [Medroxyprogesterone Acetate] | 68.77 |
| COc1ccc(-c2oc3c(CC=C(C)C)c(O[C@@H]4O[C@H](CO)[C@@H](O)[C@H](O)[C@H]4O)cc(O)c3c(=O)c2O[C@@H]2O[C@@H](C)[C@H](O)[C@@H](O)[C@H]2O[C@@H]2O[C@@H](C)[C@H](O)[C@@H](O)[C@H]2O)cc1 [Epmedin C] | 81.94 |
| CC1=C(C(=O)O)N2C(=O)[C@@H](NC(=O)[C@H](N)c3ccccc3)[C@H]2SC1 [Cephalexin] | 109.58 |
| COC(=O)[C@H](c1ccccc1Cl)N1CCc2sccc2C1 [Clopidogrel sulfate] | 90.49 |
| CC1COc2c(N3CCN(C)CC3)c(F)cc3c(=O)c(C(=O)O)cn1c23 (centres unmarked) [Ofloxacin] | 87.95 |
| Cc1nc(Nc2ncc(C(=O)Nc3c(C)cccc3Cl)s2)cc(N2CCN(CCO)CC2)n1 [Dasatinib] | 91.97 |
| Cc1cn([C@H]2C[C@H](N=[N+]=[N-])[C@@H](CO)O2)c(=O)[nH]c1=O [Zidovudine] | 73.04 |
| COc1cc2c(cc1OC)-c1cc3ccc(OC)c(OC)c3c[n+]1CC2 [Palmatine chloride] | 87.01 |
| Cc1cc(NS(=O)(=O)c2ccc(N)cc2)no1 [Sulfamethoxazole] | 98.83 |
| O=C1c2c(O)cc(O)cc2O[C@H](c2ccc(O)cc2)[C@H]1O [Dihydrokaempferol] | 109.31 |
| O=c1c(O)c(-c2cc(O)c(O)c(O)c2)oc2cc(O)cc(O)c12 [Myricetin] | 56.43 |
| O=P1(N(CCCl)CCCl)NCCCO1 (centres unmarked) [Cyclophosphamide] | 91.59 |
| Cc1cc(=O)c2c(O)c3c(O[C@@H]4O[C@H](CO)[C@@H](O)[C@H](O)[C@H]4O)cccc3cc2o1 [Cassiaside] | 81.67 |
| CN[C@H](CC(C)C)C(=O)N[C@H]1C(=O)N[C@@H](CC(N)=O)C(=O)N[C@H]2C(=O)N[C@H]3C(=O)N[C@H](C(=O)N[C@H](C(=O)O)c4cc(O)cc(O)c4-c4cc3ccc4O)[C@H](O)c3ccc(c(Cl)c3)Oc3cc2cc(c3O[C@@H]2O[C@H](CO)[C@@H](O)[C@H](O)[C@H]2O[C@H]2C[C@](C)(N)[C@H](O)[C@H](C)O2)Oc2ccc(cc2Cl)[C@H]1O [Vancomycin] | 96.04 |
| CC(C)CCC[C@@H](C)[C@H]1CC[C@H]2[C@@H]3CCC4=CC(=O)CC[C@]4(C)[C@H]3CC[C@]12C [4-Cholesten-3-one] | 77.59 |
| CCN(CC)CCNC(=O)c1cc(S(C)(=O)=O)ccc1OC [Tiapride] | 108.20 |
| C[C@@H]1C(=O)O[C@H]2[C@H](O)[C@@]34[C@H]5C[C@@H](C(C)(C)C)[C@]36[C@@H](OC(=O)[C@@H]6O)O[C@@]4(C(=O)O5)[C@@]12O [Ginkgolide B] | 120.07 |

| Structure (SMILES) | % of control remaining [%] |
| --- | --- |
| O=C(CCc1ccc(O)cc1)c1c(O)cc(O)cc1O[C@@H]1O[C@H](CO)[C@@H](O)[C@H](O)[C@H]1O [Phlorizin dihydrate] | 85.09 |
| COc1cc(O)c2c(c1C(=O)/C=C/c1ccc(O)cc1)OC(C)(C)C(O)C2 (centres unmarked) [Xanthohumol L] | 100.78 |
| O=C(CCc1ccc(O)cc1)c1c(O)cc(O)cc1O [Phloretin] | 81.23 |
| O=c1c(-c2ccc(O)cc2)coc2cc(O)cc(O)c12 [Genistein] | 106.48 |
| COc1ccc(-c2coc3cc(O)cc(O)c3c2=O)cc1 [5,7-Dihydrox-4'-methoxyisoflavone] | 100.90 |
| COc1cc(O)cc2c1C(=O)C[C@@H](c1ccccc1)O2 [Alpinetin] | 107.78 |
| CCC(C)(C)C(=O)O[C@H]1C[C@@H](C)C=C2C=C[C@H](C)[C@H](CC[C@@H]3C[C@@H](O)CC(=O)O3)[C@H]21 [Simvastatin] | 84.18 |
| O=c1c(O)c(-c2ccc(O)c(O)c2)oc2cc(O)cc(O)c12 [Quercetin] | 47.29 |
| NS(=O)(=O)c1cc(C(=O)O)c(NCc2ccco2)cc1Cl [Furosemide] | 100.00 |
| COC(=O)N[C@H](C(=O)N[C@@H](Cc1ccccc1)[C@@H](O)CN(Cc1ccc(-c2ccccn2)cc1)NC(=O)[C@@H](NC(=O)OC)C(C)(C)C)C(C)(C)C [Atazanavir] | 79.92 |
| CN(C)CCOC(c1ccccc1)c1ccccc1 [Diphenhydramine Hydrochloride] | 88.58 |
| COc1c(O)cc(O)c2c(=O)cc(-c3ccccc3)oc12 [Wogonin] | 106.17 |
| COc1cc2c(cc1OC)-c1c(C)c3ccc(OC)c(OC)c3c[n+]1CC2 [Dehydrocorydaline] | 123.69 |
| Cc1coc2c1CCC(C)C2 (centres unmarked) [Menthofuran] | 108.33 |
| C[C@@H]1C(=O)O[C@H]2C[C@@]34[C@H]5C[C@@H](C(C)(C)C)[C@]36[C@@H](OC(=O)[C@@H]6O)O[C@@]4(C(=O)O5)[C@]21O [Ginkgolide A] | 125.97 |
| COc1ccc(-c2cc(=O)c3c(O)c(OC)c(O)c(OC)c3o2)cc1 [Lysionotin] | 84.30 |
| COCCc1ccc(OCC(O)CNC(C)C)cc1 (centres unmarked) [Metoprolol tartrate] | 135.23 |
| CCC1=C(C)CN(C(=O)NCCc2ccc(S(=O)(=O)NC(=O)N[C@H]3CC[C@H](C)CC3)cc2)C1=O [Glimepiride] | 90.05 |
| O=C1[C@H](CC[C@H](O)c2ccc(F)cc2)[C@@H](c2ccc(O)cc2)N1c1ccc(F)cc1 [Ezetimibe] | 119.27 |
| C=C1CC[C@@H]2[C@](C)(CO)[C@H](O)CC[C@@]2(C)[C@H]1C/C=C1\C=COC1=O [Dehydroandrographolide] | 89.55 |
| C=CC(=O)Nc1cc(Nc2nccc(-c3cn(C)c4ccccc34)n2)c(OC)cc1N(C)CCN(C)C [AZD-9291] | 92.69 |
| CCOC(=O)N1CCC(=C2c3ccc(Cl)cc3CCc3cccnc32)CC1 [Loratadine] | 96.14 |
| CCOC(=O)C1=C[C@@H](OC(CC)CC)[C@H](NC(C)=O)[C@@H](N)C1 [Oseltamivir phosphate] | 101.77 |
| COc1c(/C=C/C(=O)c2ccc(O)c(CC=C(C)C)c2)ccc(O)c1O [Licochalcone D] | 80.45 |
| COC(=O)C1=CO[C@@H](O)[C@@H]2C(CO)=CC[C@H]12 [Genipin] | 99.28 |
| COC(=O)/C=C/c1ccc(O)c(O)c1 [Methyl caffeate] | 72.74 |
